{
  "source": "patent US20240287138A1",
  "about": "“CYCLIC PEPTIDES FOR INHIBITING TNF RECEPTOR 1 ACTIVITY” (Merck Sharp & Dohme LLC, priority 2023, published 2024)",
  "note": "Numbered stars: 1 amine (or outer) side, 2 acyl side, 3 side chain; on linkers, the order of the positions; unused ones are H or OH. Square brackets hold non-standard residues; d marks the D form. Peptide text beside a SMILES is read from it. Trp(βS-Me,7-OMe) = COc1cccc2c([C@H](C)[C@H](N)C(=O)O)c[nH]c12; Phe(2-F,4-COOH) = N[C@@H](Cc1ccc(C(=O)O)cc1F)C(=O)O; Trp(7-CN) = N#Cc1cccc2c(C[C@H](N)C(=O)O)c[nH]c12; Trp(7-Cl) = N[C@@H](Cc1c[nH]c2c(Cl)cccc12)C(=O)O; X43 = O=C(O)[C@H]1CC[C@@H](C(=O)[*:2])N([*:1])C1; Phe(4-CONH2) = NC(=O)c1ccc(C[C@H](N)C(=O)O)cc1; Phe(4-COOH) = N[C@@H](Cc1ccc(C(=O)O)cc1)C(=O)O; Trp(7-aza) = N[C@@H](Cc1c[nH]c2ncccc12)C(=O)O; Ala(thiazol-5-yl) = N[C@@H](Cc1cncs1)C(=O)O; Tyr(3-OMe) = COc1cc(C[C@H](N)C(=O)O)ccc1O; Pip(5R-OH) = O=C(O)[C@@H]1CC[C@@H](O)CN1; X1 = O=C([C@@H]1CC[C@H](N[*:1])C1)[*:2]; X42 = C[C@@H](CO)N(CC(=O)[*:2])[*:1]; Pip(4-aza) = O=C(O)[C@@H]1CNCCN1; 4Pal = N[C@@H](Cc1ccncc1)C(=O)O; NMeE = CN[C@@H](CCC(=O)O)C(=O)O; αMeS = C[C@](N)(CO)C(=O)O; Nle = CCCC[C@H](N)C(=O)O; Sar = CNCC(=O)O",
  "data": [
    {"target": "T1, TNFα-induced NF-κB signal transduction pathway (TNFR1 signaling) in THP-1 cells (Homo sapiens, UniProt P19438)", "T1 sequence (P19438 30-455)": "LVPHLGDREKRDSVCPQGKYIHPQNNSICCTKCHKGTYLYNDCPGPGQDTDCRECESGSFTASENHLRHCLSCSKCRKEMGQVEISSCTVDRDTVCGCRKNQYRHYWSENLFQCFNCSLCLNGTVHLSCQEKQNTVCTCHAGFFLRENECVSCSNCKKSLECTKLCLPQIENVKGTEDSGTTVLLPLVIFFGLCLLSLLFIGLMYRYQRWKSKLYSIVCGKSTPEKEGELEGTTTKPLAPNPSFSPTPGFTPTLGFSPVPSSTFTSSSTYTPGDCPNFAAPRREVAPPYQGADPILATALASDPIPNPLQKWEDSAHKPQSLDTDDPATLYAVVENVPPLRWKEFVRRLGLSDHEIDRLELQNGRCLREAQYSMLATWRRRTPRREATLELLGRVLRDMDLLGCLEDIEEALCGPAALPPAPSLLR", "test": "THP-1 Lucia NF-κB reporter cell assay, inhibition of TNFα-induced NF-κB signaling", "format": "cell-based", "conditions": "THP-1 NF-κB Lucia reporter cells, 10 ng/mL TNFα, 16-18 h, secreted luciferase; read-out: THP-1 IC50", "procedure": "C. Procedure for THP-1 Lucia NF-κB cells\nThe inhibition of TNFα-induced NF-κB signal transduction pathways was evaluated in THP-1 cells. THP-1 cells harboring NF-κB-inducible Lucia™ reporter gene (InvivoGen, cat. #thp1-nfkb) designed for monitoring NF-κB signal transduction pathway was employed to assess the inhibitory effect macrocyclic peptides on TNFR1 signaling. The cells were cultured in media containing RPMI 1640, 2 mM L-glutamine, 25 mM HEPES, 10% heat-inactivated fetal bovine serum with appropriate selection antibiotics. Assays were performed in media that was devoid of selection antibiotics. For profiling, 125 nL of peptides in DMSO (10 mM) were dispensed into Falcon® 384-well Optilux white/clear flat bottom TC-treated microtest microplate (Corning, cat. #353963) using Echo® 555. […] A suspension of 1 million cells/mL was dispensed at 20 μL/well in a 384-well plate to a density of 20,000 cells/well and pre-incubated with peptides at 37° C. for 1 h. Subsequently, 5 μL of TNF containing media (recombinant human TNFα; R&D Systems USA, cat. #210-TA-005/CF) or TNF-free media (for controls) was added to the wells. The final concentration of TNFα in the assay in 10 ng/mL. After o.n. incubation at 37° C. (16-18 h), 5 μL of supernatant was aspirated and transferred to a 384-well microplate (PerkinElmer, cat. #6007680) for measurement of secreted luciferase activity with 25 μL of QUANTI-Luc™ luminescence assay reagent (InvivoGen, cat. #rep-qlc1) in each well. The luminescence was measured in EnVision® Multimode Plate Reader (PerkinElmer). Dose response curves were analyzed using a 4-parameter logistic model to calculate IC50 values, reported in Table 2, using TIBCO® Spotfire® software employing appropriate Minimum and Maximum controls.", "units": {"IC50": "nM"}, "values": [
      {"smiles": "CCCC[C@@H]1NC(=O)[C@@H]2CC[C@@H](C2)NC(=O)[C@H]([C@@H](C)c2c[nH]c3c(OC)cccc23)NC(=O)CN(C)C(=O)[C@H](Cc2ccc(C(N)=O)cc2)NC(=O)[C@H](Cc2ccc(C(N)=O)cc2)NC(=O)[C@](C)(CO)NC(=O)[C@H](Cc2c[nH]c3c(C#N)cccc23)NC(=O)[C@H](Cc2ccc(C(=O)O)cc2)NC(=O)[C@H](CC(N)=O)NC(=O)CN([C@@H](C)CO)C(=O)[C@H](Cc2c[nH]c3ncccc23)NC(=O)[C@@H]2CC[C@@H](O)CN2C(=O)[C@H](Cc2ccncc2)NC1=O", "note": "[SEQ ID NO. 23] (cyclo([4Pal][Pip(5R-OH)][Trp(7-aza)][X42]N[Phe(4-COOH)][Trp(7-CN)][αMeS][Phe(4-CONH2)][Phe(4-CONH2)][Sar][Trp(βS-Me,7-OMe)][X1][Nle]))", "IC50": 0.8},
      {"smiles": "CCCC[C@@H]1NC(=O)[C@@H]2CC[C@@H](C2)NC(=O)[C@H]([C@@H](C)c2c[nH]c3c(OC)cccc23)NC(=O)CN(C)C(=O)[C@H](Cc2ccc(O)c(OC)c2)NC(=O)[C@H](Cc2ccc(C(=O)O)cc2)NC(=O)[C@](C)(CO)NC(=O)[C@H](Cc2c[nH]c3c(Cl)cccc23)NC(=O)[C@H](Cc2ccncc2)NC(=O)[C@H](CC(N)=O)NC(=O)[C@H](CCC(=O)O)N(C)C(=O)[C@H](Cc2c[nH]c3ccccc23)NC(=O)[C@@H]2CNCCN2C(=O)[C@H](Cc2ccncc2)NC1=O", "note": "[SEQ ID NO. 24] (cyclo([4Pal][Trp(7-Cl)][αMeS][Phe(4-COOH)][Tyr(3-OMe)][Sar][Trp(βS-Me,7-OMe)][X1][Nle][4Pal][Pip(4-aza)]W[NMeE]N))", "IC50": 0.7},
      {"smiles": "CCCC[C@@H]1NC(=O)[C@@H]2CC[C@@H](C2)NC(=O)[C@H]([C@@H](C)c2c[nH]c3c(OC)cccc23)NC(=O)CN(C)C(=O)[C@H](Cc2ccc(O)cc2)NC(=O)[C@H](Cc2ccc(C(=O)O)cc2)NC(=O)[C@](C)(CO)NC(=O)[C@H](Cc2c[nH]c3c(Cl)cccc23)NC(=O)[C@H](Cc2ccncc2)NC(=O)[C@H](CC(N)=O)NC(=O)[C@H](CCC(=O)O)N(C)C(=O)[C@H](Cc2c[nH]c3ccccc23)NC(=O)[C@@H]2CC[C@H](C(=O)O)CN2C(=O)[C@H](Cc2ccncc2)NC1=O", "note": "[SEQ ID NO. 120] (cyclo([4Pal][Trp(7-Cl)][αMeS][Phe(4-COOH)]Y[Sar][Trp(βS-Me,7-OMe)][X1][Nle][4Pal][X43]W[NMeE]N))", "IC50": 1.4},
      {"smiles": "CCCC[C@@H]1NC(=O)[C@@H]2CC[C@@H](C2)NC(=O)[C@H]([C@@H](C)c2c[nH]c3c(OC)cccc23)NC(=O)CN(C)C(=O)[C@H](Cc2ccc(O)cc2)NC(=O)[C@H](Cc2ccc(C(=O)O)cc2F)NC(=O)[C@](C)(CO)NC(=O)[C@H](Cc2c[nH]c3c(Cl)cccc23)NC(=O)[C@H](Cc2ccncc2)NC(=O)[C@H](CC(N)=O)NC(=O)[C@H](CCC(=O)O)N(C)C(=O)[C@H](Cc2c[nH]c3ccccc23)NC(=O)[C@@H]2CNCCN2C(=O)[C@H](Cc2ccncc2)NC1=O", "note": "[SEQ ID NO. 7] (cyclo([4Pal][Trp(7-Cl)][αMeS][Phe(2-F,4-COOH)]Y[Sar][Trp(βS-Me,7-OMe)][X1][Nle][4Pal][Pip(4-aza)]W[NMeE]N))", "IC50": 1.6},
      {"smiles": "CCCC[C@@H]1NC(=O)[C@@H]2CC[C@@H](C2)NC(=O)[C@H]([C@@H](C)c2c[nH]c3c(OC)cccc23)NC(=O)CN(C)C(=O)[C@H](Cc2ccc(O)cc2)NC(=O)[C@H](Cc2ccc(C(=O)O)cc2)NC(=O)[C@](C)(CO)NC(=O)[C@H](Cc2c[nH]c3c(Cl)cccc23)NC(=O)[C@H](Cc2cncs2)NC(=O)[C@H](CC(N)=O)NC(=O)[C@H](CCC(=O)O)N(C)C(=O)[C@H](Cc2c[nH]c3ccccc23)NC(=O)[C@@H]2CNCCN2C(=O)[C@H](Cc2ccncc2)NC1=O", "note": "[SEQ ID NO. 138] (cyclo([4Pal][Pip(4-aza)]W[NMeE]N[Ala(thiazol-5-yl)][Trp(7-Cl)][αMeS][Phe(4-COOH)]Y[Sar][Trp(βS-Me,7-OMe)][X1][Nle]))", "IC50": 2}
    ]}
  ]
}
